The target in assay [1] is T1, phosphorylated BTK Y223 in NIH/3T3 BTK WT cells (Homo sapiens, UniProt Q06187).
T1 construct: expressed in transfected cells; host or cells: NIH/3T3 (mouse fibroblasts) engineered to express BTK WT
Briefly: Phosphor-BTK(Y223) assay, NIH/3T3 BTK WT cells. The note with it: phosphorylated BTK Y223, NIH/3T3 BTK WT cells; read-out: NIH/3T3 BTK-WT pBTK IC50. The class given is cell-based. As for the experimental part:
(§1) The purpose of this assay is to simply, quickly and directly detect the endogenous level of BTK in cells. The specific assay steps are as follows: Day 1: NIH/3T3 BTK WT cells (7.5 k/well) and NIH/3T3 BTK C481S cells (10 k/well) were plated in 96-well plates, respectively, and cultured overnight at 37° C. and 5% CO2.
(§2) • 1. A 3-fold final concentration gradient dilution of the compound was prepared, and 50 μL was added to 100 μL of cell culture; 0.5% DMSO was used as a positive control for cell growth. • 2. The plate was incubated at 37° C., 5% CO2 for 0.5 h. • 3. Na3VO4 with a final concentration of 1 mM was added, and incubated at 37° C. and 5% CO2 for 2 hours. • 4. During the incubation, the following reagents were prepared: 1× added lysis buffer: 3 vol ddH2O+1 vol 4× lysis buffer+100× blocking reagent. p-BTK (Y223) cryptate-antibody and p-BTK (Y223) d2-antibody working solutions: 1 volume of each cryopreserved antibody (stored at −20° C.) was added to 19 times volumes of assay buffer (stored at 4° C.). • 5. After the incubation, the medium was removed and 50 μL of 1× added lysis buffer was added; The mixture was centrifuged at 500 rpm for 30 min at room temperature. • 6. The lysate was mixed well and 16 μL was transferred to a 384-well plate; 1× added lysis buffer was used as a blank control. • 7. 4 μL of pre-mixed working solutions of the two antibodies (cryptate Ab:d2 Ab=1:1) were added and the plate was sealed. • 8. The plate was incubated overnight at room temperature.
(§3) Biotek cytation3.0 microplate reader was used to read the plate at 665 nm and 620 nm, and the ratio of 665/620 nm per well was calculated.
(§4) IC50 was calculated using GraphPad Prism 7.0 software.
(§5) The following nonlinear fitting formula was used to obtain the phosphorylated BTK Y223 IC50 (half phosphorylation inhibitory concentration) of the compounds:
(§6) [formula] • X: Compound concentration log value • Y: Inhibition rate (% inhibition)
(§7) The formula for calculating cell phosphorylation inhibition rate (% inhibition rate) was: […]

For assay [2], the target named is T2, phosphorylated BTK Y223 in NIH/3T3 BTK C481S cells (Homo sapiens, UniProt Q06187, C481S).
T2 construct: expressed in transfected cells; host or cells: NIH/3T3 (mouse fibroblasts) engineered to express BTK C481S
T2 sequence (Q06187 whole entry C481S): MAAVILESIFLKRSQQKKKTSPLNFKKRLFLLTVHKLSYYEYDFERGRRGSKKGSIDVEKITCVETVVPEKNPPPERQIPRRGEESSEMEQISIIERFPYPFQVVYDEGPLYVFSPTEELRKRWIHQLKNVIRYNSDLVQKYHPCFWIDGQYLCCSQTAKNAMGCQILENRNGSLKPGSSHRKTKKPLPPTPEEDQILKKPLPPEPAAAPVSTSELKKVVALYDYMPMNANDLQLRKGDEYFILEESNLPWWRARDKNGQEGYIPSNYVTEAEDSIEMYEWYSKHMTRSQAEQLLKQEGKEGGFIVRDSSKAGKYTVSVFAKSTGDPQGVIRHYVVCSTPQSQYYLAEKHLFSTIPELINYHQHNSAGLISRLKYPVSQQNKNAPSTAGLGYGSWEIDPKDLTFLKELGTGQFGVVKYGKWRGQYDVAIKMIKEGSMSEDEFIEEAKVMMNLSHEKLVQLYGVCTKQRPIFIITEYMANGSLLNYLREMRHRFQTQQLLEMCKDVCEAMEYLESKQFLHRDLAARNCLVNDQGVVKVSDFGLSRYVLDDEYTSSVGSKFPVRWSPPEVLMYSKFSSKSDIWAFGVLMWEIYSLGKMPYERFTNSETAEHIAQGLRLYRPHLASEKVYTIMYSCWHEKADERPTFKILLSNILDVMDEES
Briefly: Phosphor-BTK(Y223) assay, NIH/3T3 BTK C481S cells. The class given is cell-based. To be noted: phosphorylated BTK Y223, NIH/3T3 BTK C481S cells; read-out: NIH/3T3 BTK-C481S pBTK IC50. The protocol: as §1, §2, §3, §4, §5, §6, §7

T1 sequence (Q06187 whole entry): as the sequence (Q06187 whole entry C481S) above, with S481C counted along it

In the case of `COc1ccc(F)cc1C(=O)NCc1ccc(-c2nn([C@@H]3C=C[C@@H](O)C3)c3ncnc(N)c23)cc1` (single isomer, unassigned) [Example 50, trans-N-(4-(4-amino-1-(4-hydroxycyclopent-2-en-1-yl)-1H-pyrazolo[3,4-d]pyrimidin-3-yl)benzyl)-5-fluoro-2-methoxybenzamide], the IC50 in assay [1] is no more than 0.025 µM; in assay [2], 0.025 to 0.05 µM.

For the compound `COc1ccc(F)cc1C(=O)NCc1ccc(-n2cc(C3CCC(CO)OC3)c3ncnc(N)c32)cc1` (single isomer, unassigned) [Example 51, N-(4-(4-amino-7-(6-(hydroxymethyl)tetrahydro-2H-pyran-3-yl)-5H-pyrrolo[3,2-d]pyrimidin-5-yl)benzyl)-5-fluoro-2-methoxybenzamide], the results for the IC50 in assay [1] and in assay [2] were 0.025 to 0.05 µM and 0.05 to 0.1 µM, respectively.

On to `COc1ccc(F)cc1C(=O)NCc1ccc(-n2cc(C3CCC(CO)OC3)c3ncnc(N)c32)cc1` (single isomer, unassigned) [Example 52, N-(4-(4-amino-7-(6-(hydroxymethyl)tetrahydro-2H-pyran-3-yl)-5H-pyrrolo[3,2-d]pyrimidin-5-yl)benzyl)-5-fluoro-2-methoxybenzamide], for which the values for the IC50 in assay [1] and in assay [2] were 0.05 to 0.1 µM and 0.1 to 0.5 µM, respectively.

Consider `COc1ccc(F)cc1C(=O)NCc1ccc(-c2cc(C3CCC(CO)OC3)n3ncnc(N)c23)cc1` (single isomer, unassigned) [Example 61, N-(4-(4-amino-7-(6-(hydroxymethyl)tetrahydro-2H-pyran-3-yl)pyrrolo[2,1-f][1,2,4]triazin-5-yl)benzyl)-5-fluoro-2-methoxybenzamide], for which the IC50 is no more than 0.025 µM in assay [1] and 0.025 to 0.05 µM in assay [2].

Take `COc1ccc(F)cc1C(=O)NCc1ccc(-c2cc(C3CCC(CO)OC3)n3ncnc(N)c23)cc1` (single isomer, unassigned) [Example 62, N-(4-(4-amino-7-(6-(hydroxymethyl)tetrahydro-2H-pyran-3-yl)pyrrolo[2,1-f][1,2,4]triazin-5-yl)benzyl)-5-fluoro-2-methoxybenzamide]: the IC50 in assay [1] was no more than 0.025 µM; in assay [2] it was 0.025 to 0.05 µM.

With `COc1ccc(F)cc1C(=O)NCc1ccc(-c2nn(C3CCCC(O)C3)c(N)c2C(N)=O)cc1` (stereo not shown) [Example 1, 5-amino-3-(4-((5-fluoro-2-methoxybenzoylamino)methyl)phenyl)-1-(3-hydroxycyclohexyl)-1H-pyrazole-4-carboxamide], the IC50 in assay [1] and in assay [2] was 0.1 to 0.5 µM each time.

`COc1ccc(F)cc1C(=O)NCc1ccc(-c2nn(C3CCC(CO)OC3)c(N)c2C(N)=O)cc1` (stereo not shown) [Example 12, 5-amino-3-(4-((5-fluoro-2-methoxybenzamido)methyl)phenyl)-1-(6-(hydroxymethyl)tetrahydro-2H-pyran-3-yl)-1H-pyrazole-4-carboxamide]: the IC50 in assay [1] and in assay [2] was 0.1 to 0.5 µM throughout.

On to `COc1ccc(F)cc1C(=O)NCc1ccc(-c2nn(C3CCC(CO)OC3)c3ncnc(N)c23)cc1` (stereo not shown) [Example 15, N-(4-(4-amino-1-(6-(hydroxymethyl)tetrahydro-2H-pyran-3-yl)-1H-pyrazolo[3,4-d]pyrimidin-3-yl)benzyl)-5-fluoro-2-methoxybenzamide], for which the IC50 was no more than 0.025 µM in assay [1] and 0.05 to 0.1 µM in assay [2].

Take `COc1ccc(F)cc1C(=O)NCc1ccc(-c2nn(C3CCC(O)C3)c3ncnc(N)c23)cc1` (stereo not shown) [Example 32, N-(4-(4-amino-1-(3-hydroxycyclopentanyl)-1H-pyrazolo[3,4-d]pyrimidin-3-yl)benzyl)-5-fluoro-2-methoxybenzamide]: the IC50 in assay [1] and in assay [2] was no more than 0.025 µM throughout.

On to `COc1ccc(F)cc1C(=O)NCc1ccc(-c2nn([C@H]3CC[C@@H](O)CC3)c3c(=O)[nH]nc(N)c23)cc1` [Example 39, cis-N-(4-(4-amino-1-((1S,4S)-4-hydroxycyclohexanyl)-7-oxo-6,7-dihydro-1H-pyrazolo[3,4-d]pyridazin-3-yl)benzyl)-5-fluoro-2-methoxybenzamide], for which the values for the IC50 in assay [1] and in assay [2] were 0.05 to 0.1 µM and 0.1 to 0.5 µM, respectively.

As to `COc1ccc(F)cc1C(=O)NCc1ccc(-c2nn([C@H]3CC[C@H](O)CC3)c3c(=O)[nH]nc(N)c23)cc1` [Example 40, trans-N-(4-(4-amino-1-((1R,4R)-4-hydroxycyclohexanyl)-7-oxo-6,7-dihydro-1H-pyrazolo[3,4-d]pyridazin-3-yl)benzyl)-5-fluoro-2-methoxybenzamide], the IC50 in assay [1] fell in the range of 0.025 to 0.05 µM; in assay [2], 0.05 to 0.1 µM.

For `COc1ccc(F)cc1C(=O)NCc1ccc(-c2nn(C3CCC(O)C3)c3c(=O)[nH]nc(N)c23)cc1` (stereo not shown) [Example 41, N-(4-(4-amino-1-(3-hydroxycyclopentanyl)-7-oxo-6,7-dihydro-1H-pyrazolo[3,4-d]pyridazin-3-yl)benzyl)-5-fluoro-2-methoxybenzamide], the IC50 in assay [1] lay within 0.025 to 0.05 µM; in assay [2] it was 0.05 to 0.1 µM.

On to `COc1ccc(F)cc1C(=O)NCc1ccc(-c2nn(C3CCC(O)C3)c3c(=O)[nH]nc(N)c23)cc1` (stereo not shown) [Example 42, N-(4-(4-amino-1-(3-hydroxycyclopentanyl)-7-oxo-6,7-dihydro-1H-pyrazolo[3,4-d]pyridazin-3-yl)benzyl)-5-fluoro-2-methoxybenzamide], for which the IC50 in assay [1] and in assay [2] was 0.05 to 0.1 µM in each case.

In the case of `COc1ccc(F)cc1C(=O)NCc1ccc(-c2nn(C3CCC(CO)OC3)c3c(=O)[nH]nc(N)c23)cc1` (stereo not shown) [Example 43, N-(4-(4-amino-1-(6-(hydroxymethyl)tetrahydro-2H-pyran-3-yl)-7-oxo-6,7-dihydro-1H-pyrazolo[3,4-d]pyridazin-3-yl)benzyl)-5-fluoro-2-methoxybenzamide], the IC50 in assay [1] and in assay [2] was 0.1 to 0.5 µM in each case.

As for `COc1ccc(F)cc1C(=O)NCc1ccc(-c2nn(C3CCCC(O)C3)c3c(=O)[nH]nc(N)c23)cc1` (stereo not shown) [Example 44, N-(4-(4-amino-1-(3-hydroxycyclohexanyl)-7-oxo-6,7-dihydro-1H-pyrazolo[3,4-d]pyridazin-3-yl)benzyl)-5-fluoro-2-methoxybenzamide], the IC50 is 0.05 to 0.1 µM in assay [1] and 0.1 to 0.5 µM in assay [2].

Take `COc1ccc(F)cc1C(=O)NCc1ccc(-c2nn(C3CCCCC(O)C3)c3ncnc(N)c23)cc1` (stereo not shown) [Example 57, N-(4-(4-amino-1-(3-hydroxycycloheptyl)-1H-pyrazolo[3,4-d]pyrimidin-3-yl)benzyl)-5-fluoro-2-methoxybenzamide]: the IC50 in assay [1] was 0.025 to 0.05 µM; in assay [2], 0.05 to 0.1 µM.

Take `COc1ccc(F)cc1C(=O)NCc1ccc(-c2cc(C3CCC(CO)OC3)n3ncnc(N)c23)cc1` (stereo not shown) [Example 58, N-(4-(4-amino-7-(6-(hydroxymethyl)tetrahydro-2H-pyran-3-yl)pyrrolo[2,1-f][1,2,4]triazin-5-yl)benzyl)-5-fluoro-2-methoxybenzamide]: the IC50 in assay [1] is no more than 0.025 µM; in assay [2], 0.025 to 0.05 µM.

The values are drawn from patent US20250179027A1, “CYCLOALKYL OR HETEROCYCLYL SUBSTITUTED HETEROARYL COMPOUND, AND COMPOSITION AND USE THEREOF” (Shenzhen TargetRx, Inc., priority 2022, published 2025).
